Patent US11331364B2, “Use for JNK inhibitor molecules for treatment of various diseases” (Xigen Inflammation Ltd., priority 2014, dated 2022)
Where two headings read alike, the source gives them in different places. Square brackets hold non-standard residues; d marks the D form. Peptide text beside a SMILES is read from it.

Experiments:
hJNK2 = hJNK2 (Homo sapiens, UniProt P45984); test: hJNK2 | IC50
Description: (§1) Table printed on a drawing sheet, Fig. 4
Head of the field: hJNK2 | IC50
(§2) The patent's description of the figure: FIG. 4: Table illustrating the inhibitory efficacy of several JNK inhibitors according to the present invention, which are fusion proteins of a JNK inhibitory (poly-)peptide sequence and a transporter sequence. Given are the IC50 values in the nM range, the respective standard error of the mean (SEM) and the number of experiments performed (n).
(§3) First copying reader's note: The sheet prints no unit for IC50 (the description says nM range); decimal commas are used, except for three IC50 cells printed with a point (3820.81, 5340.33, 8130.86).
Where the first naming reader finds the target: head: hJNK2 | IC50

hJNK3 = hJNK3 (Homo sapiens, UniProt P53779); test: hJNK3 | IC50; settings: read-out: hJNK3 | IC50
Chain of hJNK3 (P53779 whole entry, looked up): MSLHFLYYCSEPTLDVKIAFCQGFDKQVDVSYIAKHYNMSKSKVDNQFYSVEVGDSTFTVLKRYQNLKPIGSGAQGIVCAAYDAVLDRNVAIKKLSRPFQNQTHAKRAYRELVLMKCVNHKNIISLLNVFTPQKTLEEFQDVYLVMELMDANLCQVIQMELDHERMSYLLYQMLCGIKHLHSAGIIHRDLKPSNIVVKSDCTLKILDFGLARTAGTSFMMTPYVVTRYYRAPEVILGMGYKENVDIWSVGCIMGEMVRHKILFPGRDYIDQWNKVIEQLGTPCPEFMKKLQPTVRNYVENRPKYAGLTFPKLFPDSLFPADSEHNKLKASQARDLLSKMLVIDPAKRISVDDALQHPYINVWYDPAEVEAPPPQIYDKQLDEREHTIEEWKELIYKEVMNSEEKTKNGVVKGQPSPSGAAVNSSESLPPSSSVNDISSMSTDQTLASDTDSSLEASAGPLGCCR
Description: as §1
Head of the field: hJNK3 | IC50
as §2, §3
Where the first naming reader finds the target: head: hJNK3 | IC50

hJNK1 = target: T1, hJNK1 (Homo sapiens, UniProt P45983); test: hJNK1 | IC50; settings: read-out: hJNK1 | IC50
T1 construct: His; purchased Upstate 14-327
T1 sequence (P45983 whole entry, looked up): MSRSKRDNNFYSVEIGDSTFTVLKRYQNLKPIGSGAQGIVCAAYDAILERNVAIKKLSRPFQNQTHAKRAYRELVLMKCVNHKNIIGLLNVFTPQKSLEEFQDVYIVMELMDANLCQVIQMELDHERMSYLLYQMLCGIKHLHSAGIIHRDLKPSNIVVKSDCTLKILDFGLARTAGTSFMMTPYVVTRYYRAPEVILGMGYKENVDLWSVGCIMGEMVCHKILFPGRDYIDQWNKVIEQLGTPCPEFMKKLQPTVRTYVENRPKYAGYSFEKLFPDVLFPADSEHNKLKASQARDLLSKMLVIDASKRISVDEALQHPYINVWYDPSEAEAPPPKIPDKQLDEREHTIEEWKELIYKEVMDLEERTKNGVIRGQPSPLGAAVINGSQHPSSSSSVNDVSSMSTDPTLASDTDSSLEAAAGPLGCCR
Description: as §1
Head of the field: hJNK1 | IC50
as §2, §3
Where the first naming reader finds the target: head: hJNK1 | IC50

Chain of hJNK2 (P45984 whole entry, looked up): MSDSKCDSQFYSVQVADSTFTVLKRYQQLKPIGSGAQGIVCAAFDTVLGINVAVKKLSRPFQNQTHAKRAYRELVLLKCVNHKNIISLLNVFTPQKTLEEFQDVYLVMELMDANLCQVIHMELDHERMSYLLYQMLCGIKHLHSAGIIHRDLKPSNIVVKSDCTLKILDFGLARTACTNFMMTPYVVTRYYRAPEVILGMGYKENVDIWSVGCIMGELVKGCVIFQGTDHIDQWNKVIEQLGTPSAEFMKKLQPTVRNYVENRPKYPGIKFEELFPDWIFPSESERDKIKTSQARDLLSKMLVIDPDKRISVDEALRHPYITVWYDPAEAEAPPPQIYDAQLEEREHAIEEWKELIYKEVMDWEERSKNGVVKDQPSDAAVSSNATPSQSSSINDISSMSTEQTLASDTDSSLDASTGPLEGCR

Compound	IC50 (hJNK2; read-out: hJNK2 | IC50) [nM]	IC50 (hJNK3) [nM]	IC50 (hJNK1) [nM]	IC50 (hJNK2) [nM]
CC(C)C[C@H](NC(=O)[C@H](CC(N)=O)NC(=O)[C@H](CC(C)C)NC(=O)[C@@H](NC(=O)[C@@H](NC(=O)[C@@H]1CCCN1C(=O)[C@H](CCCNC(=N)N)NC(=O)[C@@H](CCCNC(=N)N)NC(=O)[C@H](CCCNC(=N)N)NC(=O)[C@H](CCCNC(=N)N)NC(=O)[C@H](CCC(N)=O)NC(=O)[C@@H](CCCNC(=N)N)NC(=O)[C@H](CCCNC(=N)N)NC(=O)[C@H](CCCCN)NC(=O)[C@H](CCCCN)NC(=O)[C@H](N)CCCNC(=N)N)[C@@H](C)O)[C@@H](C)O)C(=O)N[C@H](Cc1ccccc1)C(N)=O [SEQ ID NO: 174, rKKRrQRRrRPTTLNLf] (H-[dR]KKR[dR]QRR[dR]RPTTLNL[dF]-NH2)	120	63.1	334	
CC(C)C[C@H](NC(=O)[C@H](CC(N)=O)NC(=O)[C@H](CC(C)C)NC(=O)[C@@H](NC(=O)[C@@H](NC(=O)[C@@H]1CCCN1C(=O)[C@H](CCCNC(=N)N)NC(=O)[C@@H](CCCNC(=N)N)NC(=O)[C@H](CCCNC(=N)N)NC(=O)[C@H](CCC(N)=O)NC(=O)[C@@H](CCCNC(=N)N)NC(=O)[C@H](CCCNC(=N)N)NC(=O)[C@H](CCCCN)NC(=O)[C@H](CCCCN)NC(=O)[C@H](N)CCCNC(=N)N)[C@@H](C)O)[C@@H](C)O)C(=O)N[C@H](Cc1ccccc1)C(N)=O [SEQ ID NO: 175, rKKRrQRrRPTTLNLf] (H-[dR]KKR[dR]QR[dR]RPTTLNL[dF]-NH2)	82.3	60.6	185	
C[C@H](NC(=O)[C@H](C)NC(=O)[C@@H](C)NC(=O)[C@H](C)NC(=O)[C@H](C)NC(=O)[C@@H](CCCCN)NC(=O)[C@@H]1CCCN1C(=O)[C@H](CCCNC(=N)N)NC(=O)[C@@H](CCCNC(=N)N)NC(=O)[C@H](CCCNC(=N)N)NC(=O)[C@H](CCCNC(=N)N)NC(=O)[C@H](CCC(N)=O)NC(=O)[C@@H](CCCNC(=N)N)NC(=O)[C@H](CCCNC(=N)N)NC(=O)[C@H](CCCCN)NC(=O)[C@H](CCCCN)NC(=O)[C@H](N)CCCNC(=N)N)C(=O)N[C@@H](CC(N)=O)C(=O)N[C@@H](C)C(=O)N[C@H](Cc1ccccc1)C(N)=O [compound 200, NH2 r K K R r Q R R r R P k A A a A A N A f CONH2] (H-[dR]KKR[dR]QRR[dR]RP[dK]AA[dA]AANA[dF]-NH2)				3320

Second part, led by results:

IC50 (hJNK2; read-out: hJNK2 | IC50) [nM]	IC50 (hJNK3) [nM]	IC50 (hJNK1) [nM]	Compound	IC50 (hJNK2) [nM]
30	16.8	88.4	CC(C)C[C@H](NC(=O)[C@@H](NC(=O)[C@@H](NC(=O)[C@@H]1CCCN1C(=O)[C@H](CCCNC(=N)N)NC(=O)[C@@H](CCCCN)NC(=O)[C@@H]1CCCN1C(=O)[C@H](CCCNC(=N)N)NC(=O)[C@@H](CCCNC(=N)N)NC(=O)[C@H](CCCNC(=N)N)NC(=O)[C@H](CCCNC(=N)N)NC(=O)[C@H](CCC(N)=O)NC(=O)[C@@H](CCCNC(=N)N)NC(=O)[C@H](CCCNC(=N)N)NC(=O)[C@H](CCCCN)NC(=O)[C@H](CCCCN)NC(=O)[C@H](N)CCCNC(=N)N)[C@@H](C)O)[C@@H](C)O)C(=O)N[C@H](CCCNC(=N)N)C(=O)N[C@@H](CC(C)C)C(=O)N[C@H](Cc1ccccc1)C(N)=O [SEQ ID NO: 173, rKKRrQRRrRPkRPTTLrLf] (H-[dR]KKR[dR]QRR[dR]RP[dK]RPTTL[dR]L[dF]-NH2)	
40.3	22.4	131	CC(C)C[C@H](NC(=O)[C@H](CC(N)=O)NC(=O)[C@H](CC(C)C)NC(=O)[C@@H](NC(=O)[C@@H](NC(=O)[C@@H]1CCCN1C(=O)[C@H](CCCNC(=N)N)NC(=O)[C@@H](CCCCN)NC(=O)[C@@H]1CCCN1C(=O)[C@H](CCCNC(=N)N)NC(=O)[C@@H](CCCNC(=N)N)NC(=O)[C@H](CCCNC(=N)N)NC(=O)[C@H](CCCNC(=N)N)NC(=O)[C@H](CCC(N)=O)NC(=O)[C@@H](CCCNC(=N)N)NC(=O)[C@H](CCCNC(=N)N)NC(=O)[C@H](CCCCN)NC(=O)[C@H](CCCCN)NC(=O)[C@H](N)CCCNC(=N)N)[C@@H](C)O)[C@@H](C)O)C(=O)N[C@H](Cc1c[nH]c2ccccc12)C(N)=O [SEQ ID NO: 176, rKKRrQRRrRPkRPTTLNLw] (H-[dR]KKR[dR]QRR[dR]RP[dK]RPTTLNL[dW]-NH2)	
